We go through 1 compound from article PMC7497641, “Neurotropic activity and safety of methylene-cycloalkylacetate (MCA) derivative 3-(3-allyl-2-methylenecyclohexyl) propanoic acid” (ACS Chemical Neuroscience, 2020).

Data set [1] concerns the target Adenosine Receptor A2A (ADORA2A) (Homo sapiens, UniProt P29274). The data set is described as follows: SAFETYscan GPCR Calcium Flux. Particulars: for MCA-13 Max. Responce: 10 μM. It counts as cell-based. (In general: A change in cytosolic calcium serves as a functional read-out for many receptors and channels.)
Data set [2] concerns the target T1, Nicotinic acetylcholine Receptor alpha-4 beta-2 (nAChR(a4/b2)) (Homo sapiens, UniProt P17787+P43681).
T1 construct: host or cells: unnamed DiscoverX cell line
The data set is described as follows: cell-based. Particulars: Ion channel, read-out: RC50 (the source's name).

The target in data set [3] is Voltage-gated L-type calcium channel (CAV1.2) (Homo sapiens, UniProt Q13936). The experiment in a line: cell-based.
Data set [4] is described as follows: Single-dose acute tolerance, intravenous. Type of data set: in vivo, Male C57BL/6 mice. The conditions noted are these: 250 mg/kg intravenously. On the procedure:
This pilot study was conducted according to guidance for industry single dose acute toxicity testing for pharmaceuticals (https://www.fda.gov/regulatory-information/search-fda-guidance-documents/single-dose-acute-toxicity-testing-pharmaceuticals) to obtain acute information on the dose toxicity of HU-MCA-13 in male mice. Male C57BL/6 mice were injected intravenously with 0.2 mL of HU-MCA-13 in a dose of 250 mg/kg. […] The mortality and changes on body weight, clinical signs and gross observation, were monitored up to 30 days after treatment.
Sensory motor/neurological performance
The performance was weekly measured using several routine motor tests, but no neurological losses w ere observed (Table 1). Sensory motor tests were scored individually and according to the neurologic function severity score (NSS). The data from each individual test and the total score calculated from individual tests that make up the mNSS were measured. The following tests were […]
a. Beam balance test -mice were placed on a 2.5 cm wide beam for 60 seconds. A normal response is balance with steady posture for 60 seconds (a score of 0). Deficits are scored if the rat:
1. Grasps the side of the beam (score of 1); 2. Hugs the beam and one limb falls down from the beam (score of 2); 3. Hugs the beam and two limbs fall off the beam (score of 3); 4. Try to balance on the beam, but falls off from 60 seconds (score of 4); 5. Try to balance on the beam but falls off from 60 seconds (score of 5); 6. Falls off with no attempt to balance or hang on the beam in les s than 20 seconds (score of 6). b. Foot fault test- dysfunction of forelimb movement, while walking on elevated metal grids.
The animal was placed on horizontal grids (85 ×26 ×20) cm with a glass enclosure for observation.
With each weight bearing step, the forelimb can fall or slip between the metal support bars, an event recorded as a foot fault. The total number of forelimb steps and the total number of foot faults were counted. The percentage of forelimb foot faults to the total steps that occurred within 2 minutes represent the test results. c. Hind limb placing test- This assay monitors reposition of hind limbs placed down and away from the table edge. The ability to retrieve and place the hind limbs back onto the table was measured. Immediate and complete limb retrieval was scored 0, delayed (>2 seconds) limb retrieval and/or interspersed flailing was scored 1, and no limb retrieval was scored 2; d. Increasing platform angle to slide test- This assay measures the strength and stability of resistance to slide down an inclined platform. It deploys a clean wooden board (60 X 40 cm) positioned horizontally. Mice were placed on the board with head facing up the increasing incline.
The board then swings to increase the degree of inclination the rat experiences until slipping down the board feet first. The degree of the angle at which the rat relinquishes their grip/stance on the board (slips down) represents the test results; […]
e. Forelimb whole body suspension test- This assay measure s grip strength by duration of suspen sion by forepaws. The rat is suspended o n a metal bar (diameter of 5 mm) which it tightly holds onto by its forelimbs. The time (seconds) during which each rat could sustain its body weight while holding onto the bar is measured. The mice drop from the bar onto soft material with no harm. The test was repeated three times and a mean result per rat was used as the score. […]

Data set [5] deals with neurons from the spinal cord. The experiment in a line: Spinal cord neuron survival. It counts as cell-based, rat. The conditions noted are these: in the presence of HU-MCA-13; 48 h in culture. On the procedure:
We also examined whether HU-MCA-13 would promote the survival of neurons from the spinal cord, by counting the number of neurons remaining after 48 h in culture. From our counts we estimated that 58 ± 10% of the neurons present at 3 h after plating survived for 48 h in the presence of HU-MCA-13, compared with only 35 ± 5% for neurons cultured without HU-MCA-13.
Spinal cords were isolated from adult rats (4–6 months old), and the meninges were removed from the spinal cord. The spinal cord was then cut into small pieces and collected in cold Hibernate A (Brainbits, Springfield, IL, USA), glutamine (0.5 mM), and B27 (Invitrogen, Carlsbad, CA). Briefly, dissected pieces of adult rat spinal cord tissue were maintained in phosphate-buffered saline (PBS) without Ca^2+ and Mg^2+ and pooled together and transferred to an enzymatic dissociation media containing 20 IU/ml papain in Earle’s balanced salt solution (Worthington Biochemical, Freehold, NJ) and incubated for 30 min at 37 °C. […] Neurite outgrowth was measured and presented as mean length of a neurite (microns). To measure neuronal survival, 450 cells were counted in 10 randomly chosen microscope fields of a known area in each of the three dishes per condition using a 20× objective and phase-contrast optics. […]

Data set [6] concerns the target T2, Norepinephrine transporter (NET) (Homo sapiens, UniProt P23975).
T2 construct: host or cells: unnamed DiscoverX cell line
The data set is described as follows: SAFETYscan Transporter assay. Type of data set: cell-based.

Adenosine Receptor A2A (ADORA2A), sequence (P29274 whole entry): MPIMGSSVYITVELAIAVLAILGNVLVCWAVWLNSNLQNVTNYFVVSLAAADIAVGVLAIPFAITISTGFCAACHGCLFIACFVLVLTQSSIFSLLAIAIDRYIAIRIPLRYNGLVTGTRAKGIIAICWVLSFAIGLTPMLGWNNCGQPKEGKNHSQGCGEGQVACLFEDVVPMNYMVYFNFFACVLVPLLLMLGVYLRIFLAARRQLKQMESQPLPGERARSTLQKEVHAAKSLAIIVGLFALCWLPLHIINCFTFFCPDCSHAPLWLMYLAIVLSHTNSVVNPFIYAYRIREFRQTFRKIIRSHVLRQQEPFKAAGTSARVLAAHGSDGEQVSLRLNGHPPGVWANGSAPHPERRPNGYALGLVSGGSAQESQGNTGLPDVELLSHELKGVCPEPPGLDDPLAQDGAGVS
T2 sequence (P23975 whole entry): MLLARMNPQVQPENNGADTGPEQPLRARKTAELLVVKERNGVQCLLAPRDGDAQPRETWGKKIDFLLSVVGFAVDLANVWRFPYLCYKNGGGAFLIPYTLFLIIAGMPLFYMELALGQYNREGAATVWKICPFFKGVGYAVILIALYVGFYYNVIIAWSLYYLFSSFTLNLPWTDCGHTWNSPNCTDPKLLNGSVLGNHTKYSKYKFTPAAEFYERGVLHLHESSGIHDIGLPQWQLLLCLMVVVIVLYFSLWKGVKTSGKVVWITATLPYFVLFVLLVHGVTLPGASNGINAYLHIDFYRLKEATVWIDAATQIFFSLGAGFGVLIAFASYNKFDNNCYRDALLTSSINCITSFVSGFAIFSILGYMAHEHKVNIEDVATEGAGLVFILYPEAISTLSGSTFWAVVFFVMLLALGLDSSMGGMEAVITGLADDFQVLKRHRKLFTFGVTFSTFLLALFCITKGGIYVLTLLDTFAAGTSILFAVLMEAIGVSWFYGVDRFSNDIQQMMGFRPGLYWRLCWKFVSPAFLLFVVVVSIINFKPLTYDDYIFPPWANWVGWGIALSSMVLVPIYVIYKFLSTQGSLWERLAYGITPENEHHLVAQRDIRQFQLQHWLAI
T1 sequence (P43681 29-627 limits assumed): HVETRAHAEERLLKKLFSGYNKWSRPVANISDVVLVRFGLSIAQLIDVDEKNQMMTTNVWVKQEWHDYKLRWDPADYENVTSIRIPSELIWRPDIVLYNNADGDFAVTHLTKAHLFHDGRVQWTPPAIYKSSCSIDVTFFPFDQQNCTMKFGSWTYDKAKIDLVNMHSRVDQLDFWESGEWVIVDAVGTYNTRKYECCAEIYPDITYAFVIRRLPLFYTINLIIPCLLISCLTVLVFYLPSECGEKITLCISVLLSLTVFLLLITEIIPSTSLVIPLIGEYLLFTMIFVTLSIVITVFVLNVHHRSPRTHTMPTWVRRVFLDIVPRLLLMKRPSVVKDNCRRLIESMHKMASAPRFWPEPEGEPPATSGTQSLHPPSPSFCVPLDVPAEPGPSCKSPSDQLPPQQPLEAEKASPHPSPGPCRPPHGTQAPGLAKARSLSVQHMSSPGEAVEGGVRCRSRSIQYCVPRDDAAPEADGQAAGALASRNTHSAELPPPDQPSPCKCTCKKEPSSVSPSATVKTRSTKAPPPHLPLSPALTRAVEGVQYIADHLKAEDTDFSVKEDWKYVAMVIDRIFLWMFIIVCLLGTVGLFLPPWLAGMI
T1 sequence (P17787 26-502): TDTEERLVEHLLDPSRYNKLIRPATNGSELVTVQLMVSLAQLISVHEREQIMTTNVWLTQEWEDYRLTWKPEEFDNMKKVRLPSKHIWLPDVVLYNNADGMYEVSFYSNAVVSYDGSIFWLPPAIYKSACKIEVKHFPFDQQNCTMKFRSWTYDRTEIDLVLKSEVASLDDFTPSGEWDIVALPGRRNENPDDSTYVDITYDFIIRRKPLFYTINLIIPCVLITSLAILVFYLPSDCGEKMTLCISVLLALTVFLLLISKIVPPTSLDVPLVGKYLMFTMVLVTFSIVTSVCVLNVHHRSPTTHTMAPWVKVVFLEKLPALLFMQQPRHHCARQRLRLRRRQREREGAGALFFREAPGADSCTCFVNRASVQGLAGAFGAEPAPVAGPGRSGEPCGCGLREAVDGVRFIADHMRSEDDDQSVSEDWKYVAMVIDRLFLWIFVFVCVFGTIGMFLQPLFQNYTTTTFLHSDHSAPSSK

On to `C=CCC1CCCC(CCC(=O)O)C1=C` (stereo not drawn) [HU-MCA-13, 3-(3-allyl-2-methylenecyclohexyl)propanoic acid], for which the “MCA-13 Max. Responce” value was determined as 0% in data set [1] (Agonist) and 4.09% in data set [1] (Antagonist). The EC50 in data set [1] (Agonist, read-out: RC50 (the source's name)) was more than 10 µM; in data set [2] (Opener), more than 10 µM. For the same compound, the IC50 in data set [1] (Antagonist, read-out: RC50 (the source's name)) was more than 10 µM; in data set [2] (Blocker), more than 10 µM; in data set [3] it was more than 10 µM; in data set [6], more than 10 µM. The “autonomic symptoms (salivation, urinary delivery, pupillary constriction, hair contraction) versus DMSO” value in data set [4] is “no differences were observed”. Further, the mortality result in data set [4] (single dose, monitored up to 30 days) is given as “could not find any mortality”. In data set [4] (first week after injection), the “sensory-motor performance, neurologic function severity score (NSS)” value is reported as “no neurological losses were observed”. For the same compound, the “changes on body weight versus 1% DMSO treated group” value in data set [4] (up to 30 days) is “No significant changes”. In data set [4] (up to 30 days, started with 21 g), the “body weight at end” value turned out to be 27 g. In addition, the “neurons present at 3 h after plating that survived for 48 h” value in data set [5] was determined as 58 ± 10%. Further, the inhibition at 10 µM in data set [6] (10 μM, Blocker, Transporter, read-out: MCA-13 Max. Responce) was 3.53%.
